In US7745437B2, “Compounds and compositions as protein kinase inhibitors” (IRM LLC, priority 2004, dated 2010) one finds GI50 and IC50 data, which are given here for three molecules.

One test concerns the target T1, PDGFRβ (Homo sapiens, UniProt P09619).
T1 construct: fused on or other part: P41212 (Transcription factor ETV6)
The test can be described thus: PDGFRβ (Cellular Assay), Ba/F3-Tel-PDGFRβ cell proliferation. It is filed as cell-based. The conditions noted are these: Ba/F3-Tel-PDGFRβ cells; read-out: IC50 for PDGFRβ.

The target of test [1] is T2, FGFR3 (Homo sapiens, UniProt P22607). Briefly: FGFR3 (Enzymatic Assay), HTRF. Also on record: purchased Upstate. In kind it is biochemical. The note with it: purified FGFR3, 3 μM ATP; read-out: IC50 for the FGFR3 enzyme assay. Here is the method: Kinase activity assay with purified FGFR3 (Upstate) is carried out in a final volume of 10 μL containing 0.25 μg/mL of enzyme in kinase buffer (30 mM Tris-HCl pH7.5, 15 mM MgCl2, 4.5 mM MnCl2, 15 μM Na3VO4 and 50 μg/mL BSA), and substrates (5 μg/mL biotin-poly-EY (Glu, Tyr) (CIS-US, Inc.) and 3 μM ATP). Two solutions are made: the first solution of 5 μl contains the FGFR3 enzyme in kinase buffer was first dispensed into 384-format ProxiPlate® (Perkin-Elmer) followed by adding 50 nL of compounds dissolved in DMSO, then 5 μl of second solution contains the substrate (poly-EY) and ATP in kinase buffer was added to each wells. The reactions are incubated at room temperature for one hour, stopped by adding 10 μL of HTRF detection mixture, which contains 30 mM Tris-HCl pH7.5, 0.5 M KF, 50 mM ETDA, 0.2 mg/mL BSA, 15 μg/mL streptavidin-XL665 (CIS-US, Inc.) and 150 ng/mL cryptate conjugated anti-phosphotyrosine antibody (CIS-US, Inc.). After one hour of room temperature incubation to allow for streptavidin-biotin interaction, time resolved florescent signals are read on Analyst GT (Molecular Devices Corp.). IC50 values are calculated by […] analysis of the percentage inhibition of each compound at 12 concentrations (1:3 dilution from 50 μM to 0.28 nM).
Target sequence in this assay (P22607 23-806): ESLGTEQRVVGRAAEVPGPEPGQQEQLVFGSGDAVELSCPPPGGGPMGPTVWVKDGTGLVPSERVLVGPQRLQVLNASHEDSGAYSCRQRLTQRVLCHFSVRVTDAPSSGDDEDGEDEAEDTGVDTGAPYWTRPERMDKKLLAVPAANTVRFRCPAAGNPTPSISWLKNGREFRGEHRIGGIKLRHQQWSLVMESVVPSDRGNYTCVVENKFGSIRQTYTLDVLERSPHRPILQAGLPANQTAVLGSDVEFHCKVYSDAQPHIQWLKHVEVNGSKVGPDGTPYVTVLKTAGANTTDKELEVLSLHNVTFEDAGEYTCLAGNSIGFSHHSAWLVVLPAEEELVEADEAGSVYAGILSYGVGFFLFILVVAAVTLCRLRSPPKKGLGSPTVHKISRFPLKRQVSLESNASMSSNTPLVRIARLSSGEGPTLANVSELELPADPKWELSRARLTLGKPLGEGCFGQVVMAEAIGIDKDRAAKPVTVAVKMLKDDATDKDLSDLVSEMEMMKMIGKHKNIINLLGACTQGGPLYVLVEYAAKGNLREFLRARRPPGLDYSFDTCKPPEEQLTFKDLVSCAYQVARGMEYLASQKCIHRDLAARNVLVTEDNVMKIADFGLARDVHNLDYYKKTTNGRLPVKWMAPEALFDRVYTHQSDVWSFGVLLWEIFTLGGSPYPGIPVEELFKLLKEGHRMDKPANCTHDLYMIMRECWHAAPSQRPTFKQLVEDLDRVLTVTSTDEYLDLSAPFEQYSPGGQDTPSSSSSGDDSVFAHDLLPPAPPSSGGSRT
For orientation: In TR-FRET formats the signal depends on donor and acceptor labels being close together.

For test [2], the target named is T2, FGFR3. Briefly: FGFR3 (Cellular Assay), Ba/F3-TEL-FGFR3 cell proliferation. It is filed as cell-based. The arrangement: fused on or other part: P41212 (Transcription factor ETV6). The note with it: Ba/F3-TEL-FGFR3 cells, 48 hours; read-out: IC50 for the FGFR3 cellular assay. The protocol:
Compounds of the invention are tested for their ability to inhibit transformed Ba/F3-TEL-FGFR3 cells proliferation, which is depended on FGFR3 cellular kinase activity. Ba/F3-TEL-FGFR3 are cultured up to 800,000 cells/mL in suspension, with RPMI 1640 supplemented with 10% fetal bovine serum as the culture medium. Cells are dispensed into 384-well format plate at 5000 cell/well in 50 μL culture medium. Compounds of the invention are dissolved and diluted in dimethylsufoxide (DMSO). Twelve points 1:3 serial dilutions are made into DMSO to create concentrations gradient ranging typically from 10 mM to 0.05 μM. Cells are added with 50 nL of diluted compounds and incubated for 48 hours in cell culture incubator. AlamarBlue® (TREK Diagnostic Systems), which can be used to monitor the reducing environment created by proliferating cells, are added to cells at final concentration of 10%. After additional four hours of incubation in a 37° C. cell culture incubator, fluorescence signals from reduced AlamarBlue® (Excitation at 530 nm, Emission at 580 nm) are quantified on Analyst GT (Molecular Devices Corp.). IC50 values are calculated by linear regression analysis of the percentage inhibition of each compound at 12 concentrations.
Target sequence in this assay (P22607 472-761 limits assumed, stated change not applied): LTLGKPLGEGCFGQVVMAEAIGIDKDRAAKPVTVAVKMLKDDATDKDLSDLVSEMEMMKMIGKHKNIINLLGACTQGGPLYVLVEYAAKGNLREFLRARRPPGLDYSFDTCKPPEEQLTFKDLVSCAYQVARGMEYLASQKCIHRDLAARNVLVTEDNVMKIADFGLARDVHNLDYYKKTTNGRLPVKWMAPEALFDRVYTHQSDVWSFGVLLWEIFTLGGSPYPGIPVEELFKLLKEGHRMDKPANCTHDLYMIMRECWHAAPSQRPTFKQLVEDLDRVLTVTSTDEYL

A further test addresses T3, FLT3 (Homo sapiens, UniProt P36888, cells depend on it, form not given).
T3 sequence (P36888 1-993): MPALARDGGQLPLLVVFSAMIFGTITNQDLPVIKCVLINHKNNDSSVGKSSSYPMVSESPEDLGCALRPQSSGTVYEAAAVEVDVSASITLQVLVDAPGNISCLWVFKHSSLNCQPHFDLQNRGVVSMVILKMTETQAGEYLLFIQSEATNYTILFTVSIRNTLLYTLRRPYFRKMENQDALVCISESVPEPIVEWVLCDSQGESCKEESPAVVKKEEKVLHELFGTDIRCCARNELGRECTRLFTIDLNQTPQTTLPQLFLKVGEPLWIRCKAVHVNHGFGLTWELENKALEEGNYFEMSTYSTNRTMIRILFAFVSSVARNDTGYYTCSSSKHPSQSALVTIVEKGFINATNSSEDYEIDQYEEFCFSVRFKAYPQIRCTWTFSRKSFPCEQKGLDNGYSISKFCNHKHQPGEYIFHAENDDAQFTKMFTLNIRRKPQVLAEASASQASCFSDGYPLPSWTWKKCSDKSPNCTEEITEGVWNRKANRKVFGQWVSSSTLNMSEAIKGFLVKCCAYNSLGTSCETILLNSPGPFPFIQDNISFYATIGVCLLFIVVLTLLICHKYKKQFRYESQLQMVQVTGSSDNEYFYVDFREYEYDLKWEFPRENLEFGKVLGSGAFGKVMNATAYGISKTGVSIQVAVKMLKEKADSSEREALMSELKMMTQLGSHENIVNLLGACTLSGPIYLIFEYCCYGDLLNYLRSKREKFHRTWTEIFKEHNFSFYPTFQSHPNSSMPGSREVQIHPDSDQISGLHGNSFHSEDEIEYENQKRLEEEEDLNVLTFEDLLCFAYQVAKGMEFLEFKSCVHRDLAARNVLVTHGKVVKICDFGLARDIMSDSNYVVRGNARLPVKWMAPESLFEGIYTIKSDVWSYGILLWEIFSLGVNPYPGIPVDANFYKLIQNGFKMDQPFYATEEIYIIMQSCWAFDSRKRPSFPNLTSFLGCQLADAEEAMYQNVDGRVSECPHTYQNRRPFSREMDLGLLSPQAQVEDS
The test can be described thus: FLT3 (Cellular Assay), Ba/F3-FLT3-ITD cell proliferation. In kind it is cell-based. The conditions noted are these: read-out: IC50 for FLT3.

The target of a further test is T4, F317L Bcr-abl (Homo sapiens, UniProt P00519, F317L).
T4 construct: expressed in transfected cells; host or cells: Ba/F3; the other entry of the earlier key: BCR (P11274, Breakpoint cluster region protein)
The test can be described thus: Proliferation of Ba/F3 cells expressing mutant Bcr-abl F317L. It is filed as cell-based. The protocol: (§1) 32D-p210 cells are plated into 96 well TC plates at a density of 15,000 cells per well. 50 μL of two fold serial dilutions of the test compound (Cmax is 40 μM) are added to each well (STI571 is included as a positive control). After incubating the cells for 48 hours at 37° C., 5% CO2, 15 μL of MTT (Promega) is added to each well and the cells are incubated for an additional 5 hours. The optical density at 570 nm is quantified spectrophotometrically and IC50 values, the concentration of compound required for 50% inhibition, determined from a dose response curve.
(§2) Compounds of the invention are tested for their antiproliferative effect on Ba/F3 cells expressing either wild type or the mutant forms of BCR-Abl (G250E, E255V, T3151, F317L, M351T) that confers resistance or diminished sensitivity to STI571. The antiproliferative effect of these compounds on the mutant-BCR-Abl expressing cells and on the non transformed cells were tested at 10, 3.3, 1.1 and 0.37 μM as described above (in media lacking IL3). The IC50 values of the compounds lacking toxicity on the untransformed cells were determined from the dose response curves obtained as describe above.

In another test the target is T5, wild type Bcr-abl (Homo sapiens, UniProt P00519).
T5 construct: expressed in transfected cells; host or cells: Ba/F3; the other entry of the earlier key: BCR (P11274, Breakpoint cluster region protein)
The test can be described thus: Proliferation of Ba/F3 cells expressing wild type Bcr-abl. In kind it is cell-based. The protocol: as §1, §2

For a further test, the target named is T6, E255V Bcr-abl (Homo sapiens, UniProt P00519, E255V).
T6 construct: expressed in transfected cells; host or cells: Ba/F3; the other entry of the earlier key: BCR (P11274, Breakpoint cluster region protein)
Briefly: Proliferation of Ba/F3 cells expressing mutant Bcr-abl E255V. It is filed as cell-based. The protocol:
as §1, §2

The next test concerns the target T7, G250E Bcr-abl (Homo sapiens, UniProt P00519, G250E).
T7 construct: expressed in transfected cells; host or cells: Ba/F3; the other entry of the earlier key: BCR (P11274, Breakpoint cluster region protein)
T7 sequence (P00519 229-512 G250E limits assumed): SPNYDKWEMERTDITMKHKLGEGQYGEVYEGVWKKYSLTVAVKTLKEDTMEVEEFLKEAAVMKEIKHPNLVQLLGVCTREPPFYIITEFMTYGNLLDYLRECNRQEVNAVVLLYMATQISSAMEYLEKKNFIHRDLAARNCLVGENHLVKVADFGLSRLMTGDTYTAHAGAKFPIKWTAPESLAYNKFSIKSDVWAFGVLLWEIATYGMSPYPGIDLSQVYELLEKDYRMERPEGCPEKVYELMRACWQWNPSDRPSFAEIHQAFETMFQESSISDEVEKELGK
The test can be described thus: Proliferation of Ba/F3 cells expressing mutant Bcr-abl G250E. It is filed as cell-based. Here is the method: as §1, §2

The target in another test is T8, M351T Bcr-abl (Homo sapiens, UniProt P00519, M351T).
T8 construct: expressed in transfected cells; host or cells: Ba/F3; the other entry of the earlier key: BCR (P11274, Breakpoint cluster region protein)
T8 sequence (P00519 242-493 M351T limits assumed): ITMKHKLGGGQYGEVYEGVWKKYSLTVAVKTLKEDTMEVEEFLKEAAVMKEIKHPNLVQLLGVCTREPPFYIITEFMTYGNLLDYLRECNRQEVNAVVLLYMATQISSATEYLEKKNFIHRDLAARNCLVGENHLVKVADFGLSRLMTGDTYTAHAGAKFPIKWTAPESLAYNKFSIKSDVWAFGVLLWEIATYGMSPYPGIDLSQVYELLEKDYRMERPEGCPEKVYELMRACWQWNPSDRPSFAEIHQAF
Briefly: Proliferation of Ba/F3 cells expressing mutant Bcr-abl M351T. In kind it is cell-based. The protocol: as §1, §2

T1 sequence (P09619 600-962 limits assumed, change not shown): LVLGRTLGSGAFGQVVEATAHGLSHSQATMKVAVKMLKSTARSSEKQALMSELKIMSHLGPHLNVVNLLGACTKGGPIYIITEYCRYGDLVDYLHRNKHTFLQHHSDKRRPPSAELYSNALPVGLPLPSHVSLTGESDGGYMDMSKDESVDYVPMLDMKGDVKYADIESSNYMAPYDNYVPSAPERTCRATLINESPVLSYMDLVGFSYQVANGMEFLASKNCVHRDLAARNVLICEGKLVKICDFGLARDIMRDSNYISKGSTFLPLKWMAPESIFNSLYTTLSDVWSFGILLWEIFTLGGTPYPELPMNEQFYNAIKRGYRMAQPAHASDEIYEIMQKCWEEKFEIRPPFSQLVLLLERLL

Usually IC50 stands for the point on the concentration scale where inhibition reaches its midpoint. Consider `CCN1CCN(Cc2ccc(C(=O)Nc3ccc(C)c(Nc4nccn4-c4cc(NC5CC5)ncn4)c3)cc2C(F)(F)F)CC1` [Compound 25, N-{3-[1-(6-Cyclopropylamino-pyrimidin-4-yl)-1H-imidazol-2-ylamino]-4-methyl-phenyl}-4-(4-ethyl-piperazin-1-ylmethyl)-3-trifluoromethyl-benzamide], for which the values for the GI50 on PDGFRβ, at FGFR3 [2] and on FLT3 were 2 nM, 34 nM and 149 nM, respectively. The concentration for half-maximal inhibition (IC50) on FGFR3 [1] amounted to 130 nM.
The corresponding values for `Cc1ccc(NC(=O)c2ccc(CN3CCN(C)CC3)c(C(F)(F)F)c2)cc1Nc1nccn1-c1cc(NC2CC2)ncn1` [Compound 26, N-{3-[1-(6-Cyclopropylamino-pyrimidin-4-yl)-1H-imidazol-2-ylamino]-4-methyl-phenyl}-4-(4-methyl-piperazin-1-ylmethyl)-3-trifluoromethyl-benzamide] are 2 nM, 37 nM, 89 nM and 65 nM.
As to `Cc1cn(-c2cc(C(=O)Nc3ccc(C)c(Nc4nccn4-c4cc(NC5CC5)ncn4)c3)cc(C(F)(F)F)c2)cn1` [Compound 27, N-{3-[1-(6-cyclopropylamino-pyrimidin-4-yl)-1H-imidazol-2-ylamino]-4-methyl-phenyl}-3-(4-methyl-imidazol-1-yl)-5-trifluoromethyl-benzamide], the concentration for half-maximal inhibition (IC50) on F317L Bcr-abl was less than 0.5 nM; at wild type Bcr-abl, less than 0.5 nM; at E255V Bcr-abl, 36 nM; at G250E Bcr-abl, 20 nM; on M351T Bcr-abl it was less than 0.5 nM.
